Assay results: ChEMBL document CHEMBL1649204, “Evaluation of analogs of reutericyclin as prospective candidates for treatment of staphylococcal skin infections” (Antimicrob Agents Chemother, 2009)
Values after ≈ are worked out from the molar mass of the structure shown. Active and inactive are the calls of the source. The calls are words filed in the database; no cut-off is given here.

Experiments:
Staphylococcus aureus [1] = assay: Antimicrobial activity against methicillin-susceptible Staphylococcus aureus ATCC 29213 by microdilution method; assay type: functional
Staphylococcus aureus [2] = assay: Antimicrobial activity against mupirocin- and methicillin-resistant Staphylococcus aureus by microdilution method; assay type: functional
Staphylococcus aureus [3] = assay: Antimicrobial activity against methicillin-resistant Staphylococcus aureus by microdilution method; assay type: functional
[4] = Therapeutic index, ratio of IC50 for human CCD-32Sk cells to MIC for Staphylococcus aureus 8235; assay type: cell-based; details: read-out: TI
Staphylococcus aureus [5] = assay: Antimicrobial activity against methicillin-resistant Staphylococcus aureus ATCC 33591 by microdilution method; assay type: functional
[6] = tested on: Staphylococcus epidermidis; assay: Antimicrobial activity against Staphylococcus epidermidis RP62A grown as biofilms by microdilution method; assay type: functional
[7] = Cytotoxicity against human CCD-32Sk cells after 48 hrs by MTT assay; assay type: cell-based; details: Homo sapiens, CCD-32Sk, 48 h; read-out: IC50
Streptococcus pyogenes = assay: Antimicrobial activity against Streptococcus pyogenes by microdilution method; assay type: functional
[8] = tested on: Staphylococcus epidermidis; assay: Antimicrobial activity against Staphylococcus epidermidis RP62A by microdilution method; assay type: functional
Staphylococcus aureus [9] = assay: Antimicrobial activity against Staphylococcus aureus 8235 by microdilution method; assay type: functional
Staphylococcus aureus [10] = assay: Antimicrobial activity against methicillin-resistant Staphylococcus aureus ATCC 33591 grown as biofilms by microdilution method; assay type: functional
Staphylococcus aureus [11] = assay: Antimicrobial activity against methicillin-susceptible Staphylococcus aureus ATCC 29213 grown as biofilms by microdilution method; assay type: functional
Staphylococcus aureus [12] = assay: Antimicrobial activity against methicillin-susceptible Staphylococcus aureus by microdilution method; assay type: functional
Staphylococcus aureus [13] = assay: Antimicrobial activity against Staphylococcus aureus isolate 8235 at >200 ug/ml by microdilution method in presence of 50 % human serum; assay type: functional, organism-based
Staphylococcus aureus [14] = assay: Antimicrobial activity against Staphylococcus aureus ATCC 29213 infected BALB/c mouse at 10 % administered topically 4 hrs post infection twice a day for 5 days; assay type: functional, organism-based
Staphylococcus aureus [15] = assay: Antimicrobial activity against Staphylococcus aureus 8235 selected after 4 times MIC pre-incubated for 1 hr by microdilution method; assay type: functional
Staphylococcus aureus [16] = assay: Bacteriostatic activity against Staphylococcus aureus isolate 8235 assessed as log reduction in bacterial count at 32 times MIC after 24 hrs by microdilution method; assay type: functional
Staphylococcus aureus [17] = assay: Antimicrobial activity against Staphylococcus aureus ATCC 29213 infected BALB/c mouse at 2 % administered topically 4 hrs post infection twice a day for 5 days; assay type: functional, organism-based

CN[C@H](CC(C)C)C(=O)N[C@H]1C(=O)N[C@@H](CC(N)=O)C(=O)N[C@H]2C(=O)N[C@H]3C(=O)N[C@H](C(=O)N[C@H](C(=O)O)c4cc(O)cc(O)c4-c4cc3ccc4O)[C@H](O)c3ccc(c(Cl)c3)Oc3cc2cc(c3O[C@@H]2O[C@H](CO)[C@@H](O)[C@H](O)[C@H]2O[C@H]2C[C@](C)(N)[C@H](O)[C@H](C)O2)Oc2ccc(cc2Cl)[C@H]1O [VANCOMYCIN]
MIC (Staphylococcus aureus [1]): 0.8 mg/L (≈ 0.552 µM)
MIC50 (Staphylococcus aureus [2]): > 200 mg/L
MIC90 (Staphylococcus aureus [2]): > 200 mg/L
MIC50 (Staphylococcus aureus [3]): 0.2 mg/L (≈ 0.138 µM)
MIC90 (Staphylococcus aureus [3]): 0.4 mg/L (≈ 0.276 µM)
selectivity ratio [4]: > 25000
MIC (Staphylococcus aureus [5]): 1.6 mg/L (≈ 1.1 µM)
MBEC [6]: >400 µg/mL
MBIC [6]: 12.5 µg/mL
IC50 [7]: > 20000 mg/L
MIC50 (Streptococcus pyogenes): 0.024 mg/L (≈ 0.0166 µM)
MIC90 (Streptococcus pyogenes): 0.024 mg/L (≈ 0.0166 µM)
MIC [8]: 1.6 mg/L (≈ 1.1 µM)
MIC (Staphylococcus aureus [9]): 0.8 mg/L (≈ 0.552 µM)
MBEC (Staphylococcus aureus [10]): >400 µg/mL
MBIC (Staphylococcus aureus [10]): 1.6 µg/mL
MBEC (Staphylococcus aureus [11]): >400 µg/mL
MBIC (Staphylococcus aureus [11]): 3.12 µg/mL
MIC (Staphylococcus aureus [12]): 0.05 mg/L (≈ 0.0345 µM)
MIC50 (Staphylococcus aureus [12]): 0.12 mg/L (≈ 0.0828 µM)
MIC90 (Staphylococcus aureus [12]): 0.2 mg/L (≈ 0.138 µM)

CO[C@H]1/C=C/O[C@@]2(C)Oc3c(C)c(O)c4c(O)c(c(/C=N/N5CCN(C)CC5)c(O)c4c3C2=O)NC(=O)/C(C)=C\C=C\[C@H](C)[C@H](O)[C@@H](C)[C@@H](O)[C@@H](C)[C@H](OC(C)=O)[C@@H]1C [RIFAMPIN]
MIC (Staphylococcus aureus [1]): 0.006 mg/L (≈ 0.00729 µM)
MIC (Staphylococcus aureus [5]): 0.012 mg/L (≈ 0.0146 µM)
MBEC [6]: 50 µg/mL
MBIC [6]: <0.2 µg/mL
MIC [8]: 0.012 mg/L (≈ 0.0146 µM)
MBEC (Staphylococcus aureus [10]): 6.25 µg/mL
MBEC (Staphylococcus aureus [11]): 25 µg/mL
MBIC (Staphylococcus aureus [11]): <0.2 µg/mL

CCCCCCCCCCN1C(=O)/C(=C(/C)O)C(=O)[C@@H]1CC(C)C
MIC (Staphylococcus aureus [1]): 0.8 mg/L (≈ 2.37 µM)
MIC50 (Staphylococcus aureus [2]): 0.8 mg/L (≈ 2.37 µM)
MIC90 (Staphylococcus aureus [2]): 1.6 mg/L (≈ 4.74 µM)
MIC50 (Staphylococcus aureus [3]): 0.8 mg/L (≈ 2.37 µM)
MIC90 (Staphylococcus aureus [3]): 1.6 mg/L (≈ 4.74 µM)
Activity (Staphylococcus aureus [13]): inactive
Activity (Staphylococcus aureus [14]): Active
selectivity ratio [4]: 12.3
MIC (Staphylococcus aureus [5]): 0.8 mg/L (≈ 2.37 µM)
MBEC [6]: 50 µg/mL
MBIC [6]: 0.4 µg/mL
IC50 [7]: 308 mg/L (≈ 914 µM)
MIC50 (Streptococcus pyogenes): 0.2 mg/L (≈ 0.593 µM)
MIC90 (Streptococcus pyogenes): 0.8 mg/L (≈ 2.37 µM)
MIC [8]: 0.4 mg/L (≈ 1.19 µM)
MIC (Staphylococcus aureus [9]): 25 mg/L (≈ 74.1 µM)
MIC (Staphylococcus aureus [15]): 0.8 mg/L (≈ 2.37 µM)
MBEC (Staphylococcus aureus [10]): 6.25 µg/mL
MBIC (Staphylococcus aureus [10]): 0.8 µg/mL
FC (Staphylococcus aureus [16]): 2.6
MBEC (Staphylococcus aureus [11]): 50 µg/mL
MBIC (Staphylococcus aureus [11]): 3.12 µg/mL
MIC (Staphylococcus aureus [12]): 0.4 mg/L (≈ 1.19 µM)
MIC50 (Staphylococcus aureus [12]): 0.4 mg/L (≈ 1.19 µM)
MIC90 (Staphylococcus aureus [12]): 0.8 mg/L (≈ 2.37 µM)

C/C(O)=C1\C(=O)[C@H](CC(C)C)N(Cc2ccc(-c3ccccc3)cc2)C1=O
MIC (Staphylococcus aureus [1]): 0.8 mg/L (≈ 2.2 µM)
MIC50 (Staphylococcus aureus [2]): 1.6 mg/L (≈ 4.4 µM)
MIC90 (Staphylococcus aureus [2]): 1.6 mg/L (≈ 4.4 µM)
MIC50 (Staphylococcus aureus [3]): 1.6 mg/L (≈ 4.4 µM)
MIC90 (Staphylococcus aureus [3]): 1.6 mg/L (≈ 4.4 µM)
Activity (Staphylococcus aureus [13]): inactive
selectivity ratio [4]: 21.2
MIC (Staphylococcus aureus [5]): 0.8 mg/L (≈ 2.2 µM)
MBEC [6]: 200 µg/mL
MBIC [6]: 1.6 µg/mL
IC50 [7]: 529 mg/L (≈ 1460 µM)
MIC50 (Streptococcus pyogenes): 0.2 mg/L (≈ 0.55 µM)
MIC90 (Streptococcus pyogenes): 0.8 mg/L (≈ 2.2 µM)
MIC [8]: 0.8 mg/L (≈ 2.2 µM)
MIC (Staphylococcus aureus [9]): 25 mg/L (≈ 68.8 µM)
MIC (Staphylococcus aureus [15]): 0.8 mg/L (≈ 2.2 µM)
MBIC (Staphylococcus aureus [10]): 0.8 µg/mL
FC (Staphylococcus aureus [16]): 2.6
MBEC (Staphylococcus aureus [11]): 100 µg/mL
MBIC (Staphylococcus aureus [11]): 3.12 µg/mL
MIC (Staphylococcus aureus [12]): 0.8 mg/L (≈ 2.2 µM)
MIC50 (Staphylococcus aureus [12]): 0.8 mg/L (≈ 2.2 µM)
MIC90 (Staphylococcus aureus [12]): 1.6 mg/L (≈ 4.4 µM)

C/C(=C\C(=O)OCCCCCCCCC(=O)O)C[C@@H]1OC[C@H](C[C@@H]2O[C@H]2[C@@H](C)[C@H](C)O)[C@@H](O)[C@H]1O [MUPIROCIN]
MIC (Staphylococcus aureus [1]): 0.1 mg/L (≈ 0.2 µM)
Activity (Staphylococcus aureus [17]): Active
MIC50 (Staphylococcus aureus [2]): 0.8 mg/L (≈ 1.6 µM)
MIC90 (Staphylococcus aureus [2]): 0.8 mg/L (≈ 1.6 µM)
MIC50 (Staphylococcus aureus [3]): 0.8 mg/L (≈ 1.6 µM)
MIC90 (Staphylococcus aureus [3]): 3.12 mg/L (≈ 6.23 µM)
Activity (Staphylococcus aureus [13]): inactive
selectivity ratio [4]: > 1600
MIC (Staphylococcus aureus [5]): 0.06 mg/L (≈ 0.12 µM)
MBEC [6]: >400 µg/mL
MBIC [6]: <0.2 µg/mL
IC50 [7]: > 20000 mg/L
MIC50 (Streptococcus pyogenes): 0.4 mg/L (≈ 0.799 µM)
MIC90 (Streptococcus pyogenes): 0.4 mg/L (≈ 0.799 µM)
MIC [8]: 0.12 mg/L (≈ 0.24 µM)
MIC (Staphylococcus aureus [9]): 12.5 mg/L (≈ 25 µM)
MBEC (Staphylococcus aureus [11]): >400 µg/mL
MBIC (Staphylococcus aureus [11]): <0.2 µg/mL
MIC50 (Staphylococcus aureus [12]): 0.8 mg/L (≈ 1.6 µM)
MIC90 (Staphylococcus aureus [12]): 0.8 mg/L (≈ 1.6 µM)
